Drawing on patent US20020193587A1, “Penicillin crystal and process for producing the same” (priority 2000, published 2002), this text covers purity after storage for three substances.

This series can be described thus: Storage stability in sealed test tubes at room temperature for 1 year, purity determined by HPLC. It is filed as physicochemical. The following applies: 10 g in sealed test tube, stored at room temperature (5 to 35° C.) for 1 year, starting purity 100% (Examples 1, 2), 79% (Comparative Example 1), 93% (Comparative Example 2). How it is done:
A test tube was charged with 10 g of each of the TAZB crystal of Example 1 (purity 100%), the TAZB crystal of Example 2 (purity 100%), the TAZB oily substance of Comparative Example 1 (purity 79%), and the TAZB amorphous powder of Comparative Example 2 (purity 93%). The test tubes were sealed and stored at room temperature (5 to 35° C.) for 1 year after which their purity was determined by HPLC.

With “diphenylmethyl 2-methyl-2-triazolylmethylpenam-3-carboxylate 1,1-dioxide [Comparative Example 1]”, the purity after storage was 52%.
“diphenylmethyl 2-methyl-2-triazolylmethylpenam-3-carboxylate 1,1-dioxide [Comparative Example 2]”: the purity after storage is given as 81%.
Take “diphenylmethyl 2-methyl-2-triazolylmethylpenam-3-carboxylate 1,1-dioxide [Example 2]”: the purity after storage is 99%.
